Experimental data taken from patent US20250041282A1, “METHOD FOR TREATING INFLAMMATORY PULMONARY DISEASE” (FU JEN CATHOLIC UNIVERSITY, priority 2021, published 2025).

Experiments:
[1] = system: RAW264.7 macrophages; experiment: Cytokine protein array analysis of conditioned culture media; assay type: cell-based, mouse
Experimental: Cytokine array analysis was performed according to the procedure recommended by the Raybio mouse cytokine antibody array 4 (RayBiotech, Inc. Peachtree Corners, GA). This cytokine protein array was used to simultaneously determine the relative levels of 40 different cytokines, chemokines, and acute-phase proteins in a single sample. One hundred microliters of cell culture medium was used for each sample. The signal intensity in the membrane of the cytokine protein array was measured by using ImageJ software and is presented as a heat map drawn by using MultiExperiment Viewer (MeV V.4.9.0) software.
To distinguish the effect of various FJU-Cs on LPS-induced inflammation, the cell culture media of RAW264.7 macrophages treated with various conditions were harvested and analyzed by using a mouse cytokine antibody array (left panel of FIG. 3). The signal intensities on the array membranes were quantified by densitometry, and the changes in different cytokines are represented as a heat map (right panel of FIG. 3).

[2] = system: RAW264.7 macrophages; experiment: ELISA of cytokines in cell culture media; assay type: cell-based, mouse
Experimental: RANTES (RayBiotech), IL-1β and IL-6 (eBioscience, San Diego, CA, USA) concentrations in cell culture media and mouse serum were measured using ELISA kits according to the manufacturer's instructions. The plates were measured at […] using an Epoch microplate spectrophotometer (BioTek Instruments, Winooski, VT, USA). The concentrations of RANTES, IL-1β and IL-6 in the samples were determined by standard curves.
For identifying the potential signaling pathways which regulate the secretion of IL-6 and RANTES induced by LPS stimulation, RAW264.7 macrophages were pretreated with various kinase inhibitors for 30 min and then stimulated with/without 100 ng/ml LPS for 24 h; the cell culture media was harvested for ELISA assay. […] (FIG. 6A). To investigate whether FJU-C28 could mediate the transcriptional activity of NF-κB (p65), the translocation of NF-κB p65 was examined in LPS-stimulated macrophages.

[3] = system: C57BL/6 mice with LPS-induced systemic inflammation; experiment: Lung function in mice with LPS-induced systemic inflammation (Buxco); assay type: in vivo, mouse; conditions: FJU-C28 5 mg/kg, LPS 7.5 mg/kg, 24 hours
Experimental: Ten-week-old male C57BL/6 mice from BioLasco Taiwan Co., Ltd. (Taipei, Taiwan) were used in the present study. The mice were maintained under standard laboratory conditions as described in a previous study.^34 All animal procedures were approved by the Institutional Animal Care and Use Committee of Fu Jen Catholic University (IACUC approval number: A10508). We also confirmed that all experiments were performed in compliance with the ARRIVE guidelines. All surgeries were performed under anesthesia, and all efforts were made to minimize the pain and discomfort of the animals. The mice were randomly assigned to three groups: control (n=7), LPS (n=7) and LPS plus C28 (n=8). The mice were injected with/without FJU-C28 (5 mg/kg) dissolved in DMSO/PBS buffer, and after one hour the mice were stimulated with an intraperitoneal injection of LPS (7.5 mg/kg) in PBS buffer. At 24 hours after LPS stimulation, the mice were anesthetized i.p. with a mixture of ketamine (100 mg/kg) (Pfizer, New York, US) and xylazine (10 mg/kg) (Bayer, Leverkusen, Germany), endotracheally intubated with an airway catheter and connected to a forced pulmonary maneuver system (Buxco Research System; Buxco Electronics, Wilmington, NC). The detailed procedure was performed as described in a previous study.^34 The lung function values, including C chord (lung compliance), IC (inspiratory capacity), VC (vital capacity), FEV100 (forced expiratory volume at 100 ms) and FVC (forced vital capacity), were measured using a Buxco Research System. After the lung function assays, the experimental mice were sacrificed, and blood was collected by cardiac puncture. The lung lobes were inflated with 4% buffered paraformaldehyde via a catheter. Slides of lung specimens at a thickness of 5 μm were stained with hematoxylin and eosin for light microscopic analysis.
To evaluate the protective effect of FJU-C28 on lung function in mice with systemic inflammation induced by endotoxin, male C57BL/6 mice were administered LPS (7.5 mg/kg) and treated with/without FJU-C28 (5 mg/kg) for 24 hours; subsequently, lung function parameters were measured using a Buxco pulmonary function test system. […] However, treatment with FJU-C28 restored the LPS-induced decreases in lung function including VC (p<0.05), C chord, FEV100 (p<0.05), and FVC (p<0.05), compared to those of LPS-treated mice (FIG. 11). To confirm the status of LPS-induced lung injury in mice, histological examination of lung specimens was performed by H&E staining. […] To ascertain the correlation between target cytokines and lung injury, serum cytokines were measured by ELISA.

[4] = LPS-treated macrophages, cell culture media, FIG. 4C/4D

SMILES: C=CCC1CC(Sc2ccccc2)=CC(=O)N1C(=O)C=C (stereo not drawn) [FJU-C28]
- LPS-induced secretion of TIMP1, IL-6 and IL-10 (array, in words) ([1]; FIG. 3): dramatically suppressed
- LPS-induced secretion/expression of RANTES (array, in words) ([1]; FIG. 3): dramatically suppressed
- Protein array, fold change (mean ± S.E.): BLC ([1]; LPS + compound / control): 1.3 ± 0.1 fold change
- Protein array, fold change (mean ± S.E.): CD30 L ([1]; LPS + compound / control): 1.6 ± 0.9 fold change
- Protein array, fold change (mean ± S.E.): Eotaxin ([1]; LPS + compound / control): 10.3 ± 6.1 fold change
- Protein array, fold change (mean ± S.E.): Eotaxin-2 ([1]; LPS + compound / control): 2.0 ± 1.0 fold change
- Protein array, fold change (mean ± S.E.): Fas ligand ([1]; LPS + compound / control): 1.1 ± 0.8 fold change
- Protein array, fold change (mean ± S.E.): Fractalkine ([1]; LPS + compound / control): 1.0 ± 0.6 fold change
- Protein array, fold change (mean ± S.E.): GCSF ([1]; LPS + compound / control): 20.1 ± 1.9 fold change
- Protein array, fold change (mean ± S.E.): GM-CSF ([1]; LPS + compound / control): 1.5 ± 0.4 fold change
- Protein array, fold change (mean ± S.E.): I-TAC ([1]; LPS + compound / control): 0.8 ± 0.3 fold change
- Protein array, fold change (mean ± S.E.): IL-1B ([1]; LPS + compound / control): 2.6 ± 0.0 fold change
- Protein array, fold change (mean ± S.E.): IL-1α ([1]; LPS + compound / control): 1.1 ± 0.1 fold change
- Protein array, fold change (mean ± S.E.): IL-2 ([1]; LPS + compound / control): 2.1 ± 0.2 fold change
- Protein array, fold change (mean ± S.E.): IL-3 ([1]; LPS + compound / control): 1.1 ± 0.2 fold change
- Protein array, fold change (mean ± S.E.): IL-4 ([1]; LPS + compound / control): 1.2 ± 0.2 fold change
- Protein array, fold change (mean ± S.E.): IL-6 ([1]; LPS + compound / control): 1.1 ± 0.2 fold change
- Protein array, fold change (mean ± S.E.): IL-9 ([1]; LPS + compound / control): 0.9 ± 0.3 fold change
- Protein array, fold change (mean ± S.E.): IL-10 ([1]; LPS + compound / control): 0.3 ± 0.2 fold change
- Protein array, fold change (mean ± S.E.): IL-12 p70 ([1]; LPS + compound / control): 0.8 ± 0.2 fold change
- Protein array, fold change (mean ± S.E.): IL-12 p-40 p70 ([1]; LPS + compound / control): 0.9 ± 0.1 fold change
- Protein array, fold change (mean ± S.E.): IL-13 ([1]; LPS + compound / control): 0.6 ± 0.0 fold change
- Protein array, fold change (mean ± S.E.): IL-17 ([1]; LPS + compound / control): 7.8 ± 5.3 fold change
- Protein array, fold change (mean ± S.E.): INF gamma ([1]; LPS + compound / control): 1.4 ± 0.2 fold change
- Protein array, fold change (mean ± S.E.): KC ([1]; LPS + compound / control): 0.8 ± 0.4 fold change
- Protein array, fold change (mean ± S.E.): LIX ([1]; LPS + compound / control): 1.0 ± 0.2 fold change
- Protein array, fold change (mean ± S.E.): Leptin ([1]; LPS + compound / control): 3.2 ± 0.8 fold change
- Protein array, fold change (mean ± S.E.): Lymphotactin ([1]; LPS + compound / control): 0.7 ± 0.2 fold change
- Protein array, fold change (mean ± S.E.): MCP-1 ([1]; LPS + compound / control): 1.7 ± 0.2 fold change
- Protein array, fold change (mean ± S.E.): MCSF ([1]; LPS + compound / control): 0.8 ± 0.1 fold change
- Protein array, fold change (mean ± S.E.): MIP-1α ([1]; LPS + compound / control): 1.0 ± 0.2 fold change
- Protein array, fold change (mean ± S.E.): MIP-1γ ([1]; LPS + compound / control): 1.2 ± 0.2 fold change
- Protein array, fold change (mean ± S.E.): RANTES ([1]; LPS + compound / control): 1.3 ± 0.2 fold change
- Protein array, fold change (mean ± S.E.): SDF1 ([1]; LPS + compound / control): 0.9 ± 0.2 fold change
- Protein array, fold change (mean ± S.E.): STNFRI ([1]; LPS + compound / control): 1.0 ± 0.0 fold change
- Protein array, fold change (mean ± S.E.): STNFRII ([1]; LPS + compound / control): 2.1 ± 0.1 fold change
- Protein array, fold change (mean ± S.E.): TCA-3 ([1]; LPS + compound / control): 0.9 ± 0.1 fold change
- Protein array, fold change (mean ± S.E.): TECK ([1]; LPS + compound / control): 0.5 ± 0.3 fold change
- Protein array, fold change (mean ± S.E.): TIMP-1 ([1]; LPS + compound / control): 1.1 ± 0.1 fold change
- Protein array, fold change (mean ± S.E.): TIMP-2 ([1]; LPS + compound / control): 0.0 ± 0.0 fold change
- Protein array, fold change (mean ± S.E.): TNFα ([1]; LPS + compound / control): 21.0 ± 0.8 fold change
- production of IL-1β (ELISA) [2, 4]: dramatically reduced
- production of IL-6 (ELISA) [2, 4]: dramatically reduced
- LPS-induced expression of RANTES (ELISA) ([2]; at 6 hours or 24 hours, FIG. 4A): dramatically suppressed
- forced expiratory volume at 100 ms (FEV100) ([3]; p<0.05 vs LPS-treated mice): restored
- forced vital capacity (FVC) ([3]; p<0.05 vs LPS-treated mice): restored
- vital capacity (VC) ([3]; p<0.05 vs LPS-treated mice): restored
- lung compliance (C chord) ([3]; vs LPS-treated mice): restored
